Assay results from PMC9817970 (Cancers, 2022).

What was measured:
c-KIT V560G/D816V = target: T1, c-KIT V560G/D816V (Homo sapiens, UniProt P10721, D816V/V560G); assay: ADP-Glo kinase assay on c-KIT V560G/D816V; assay type: biochemical; details: for IC50: ADP-Glo kinase assay, 10 μM ATP; for fold higher enzymatic inhibitory activity against c-KIT V560G/D816V compared with imatinib: versus imatinib
T1 construct: purchased Promega VA7063
Experimental: (§1) Biochemical kinase assays on c-KIT protein kinase were performed at Reaction Biology Corp. (San Diego, CA, USA). […] The kinase assay followed the manufacturer’s instruction. IC50 values were calculated by GraphPad prism 8.0 software (GraphPad Software, San Diego, CA, USA).

GIST-T1 cells [1] = assay: Cell viability assay (CellTiter-Glo); assay type: cell-based; details: Homo sapiens, GISTT1; 72 h; concentration causing half-maximal growth inhibition
Experimental: (§2) GIST-T1 (Cosmobio, Tokyo, Japan, # PMC-GIST01C-COS) cells were cultured in DMEM (Welgene, # LM001-05) and HMC1.2 (Merck, Darmstadt, Germany, # SCC062) cells were cultured in IMDM (Welgene, # LM004-01). Parental Ba/F3 (DSMZ, Braunschweig, Germany, # ACC300) cells were cultured in RPMI (Welgene, # LM011-51) with 10 ng IL-3/mL (Enzo, # ALX-201-821). The culture media was supplemented with 10% fetal bovine serum and 1% penicillin/streptomycin solution. The cells were maintained in a humidified atmosphere containing 5% CO2 at 37 °C.
(§3) Cells (GIST-T1: 5.0 × 10^3; HMC1.2: 1 × 10^4) were seeded in 96-well plates. Each compound was treated in each well at 10 dose points of 3-fold serial dilution. After treatment with each compound for 72 h, CellTiter-Glo solution (Promega, # G7572) was added to each well. Anti-proliferation activity was measured the luminescence using a 96-well plate reader (EnVision 2013).

HMC1.2 cells [2] = assay: Cell viability assay (CellTiter-Glo); assay type: cell-based, human; details: Homo sapiens, 72 h
Experimental: as §2, §3

c-KIT D816V Ba/F3 cells [3] = assay: Anti-proliferative activity on Ba/F3 cells; assay type: cell-based; details: Mus musculus, BaF3
parental Ba/F3 cells = assay: Anti-proliferative activity on Ba/F3 cells; assay type: cell-based; details: Mus musculus, BaF3
Experimental: as §2, §3

[4] = tested on: c-KIT auto-phosphorylation in HMC1.2 cells; assay: Western blot of c-KIT signaling; assay type: cell-based, human; details: 10 μM
Experimental: (§4) Cells were harvested and lysed using RIPA buffer containing 50 mM HEPES (pH 7.4), 1% Triton X-100, 2 mM EDTA, 150 mM NaCl, 2.5 mM NaF, 5 mM Na3VO4, and protease inhibitor cocktail tablet (Roche, # 11–878-580–001). Proteins were separated and transferred to an NC membrane. The membranes were blocked using 5% skim milk in TBS-T buffer. The p-c-KIT (Tyr703, # 3073), p-AKT (Ser473, # 9271), p-ERK (Thr202/Tyr204, # 8544), ERK (# 4695), p-PLCγ (Tyr783, # 14008), p-STAT3 (Tyr705, # 4074), and PARP (# 9542) antibodies were obtained from Cell Signaling Technologies. The β-actin (# sc-47778) and STAT3 (# sc-482) antibodies were obtained from Santa Cruz Biotechnology. AKT (A18120) antibody was purchased from ABclonal. Each primary antibody was incubated overnight at 4 °C. The secondary antibody (GenDEPOT) was incubated for 1 h at room temperature. Proteins were detected using ECL substrate.

[5] = tested on: phosphorylated c-KIT (Tyr703) and downstream signaling in GIST-T1 cells; assay: Western blot of c-KIT signaling; assay type: cell-based, human
Experimental: as §4

[6] = tested on: c-KIT auto-phosphorylation in c-KIT D816V Ba/F3 cells; assay: Western blot of c-KIT signaling; assay type: cell-based; details: 10 μM
Experimental: as §4

GIST-T1 cells [7] = assay: Apoptosis analysis (annexinV/PI flow cytometry); assay type: cell-based, human; details: GIST-T1, 0.05 μM
Experimental: (§5) After compound treatment in GIST-T1 and HMC1.2 cells for 24 h, cells were fixed with 70% cold ethanol. Then, cells were incubated with 50 μg propidium iodide/mL solution (PI, Sigma) containing 1 mg RNase A/mL for 30 min in the dark. Cell cycle arrest was analyzed (BD Accuri), and data were processed using BD Accuri^TM C6 software. For apoptosis analysis, compound treatment for 24–48 h, cells were harvested and stained with annexinV and PI solution. 1 × 10^5 cells were analyzed using flow cytometric analysis.

HMC1.2 cells [8] = assay: Apoptosis analysis (annexinV/PI flow cytometry); assay type: cell-based, human; details: HMC1.2, 1 μM, 48 h
Experimental: as §5

c-KIT D816V Ba/F3 cells [9] = assay: Apoptosis analysis (annexinV/PI flow cytometry); assay type: cell-based; details: c-KIT D816V Ba/F3, 1 μM
Experimental: as §5

GIST-T1 cells [10] = assay: Cell cycle arrest analysis (PI flow cytometry); assay type: cell-based, human; details: GIST-T1, 0.01 μM
Experimental: as §5

HMC1.2 cells [11] = assay: Cell cycle arrest analysis (PI flow cytometry); assay type: cell-based, human; details: HMC1.2, 0.5 μM, 24 h
Experimental: as §5

c-KIT D816V Ba/F3 cells [12] = assay: Cell cycle arrest analysis (PI flow cytometry); assay type: cell-based; details: c-KIT D816V Ba/F3, 0.5 μM, 24 h
GIST-T1 cells [13] = assay: Migration (wound healing) assay; assay type: cell-based, human; details: GIST-T1, 0.005 μM and 0.05 μM, 36 h
Experimental: GIST-T1 cells were seeded in 6-well plates at 2 × 10^6 cells. Next day, cells were washed with PBS and wounded in the center of each well. Then, GIST-T1 cells were washed with PBS and added to fresh DMEM.

GIST-T1 cells [14] = assay: Invasion assay (Transwell); assay type: cell-based, human; details: GIST-T1, 0.05 μM, 48 h
Experimental: The cell invasion assay was performed using Transwell membrane filter inserts (Corning Costar Corp., Corning, NY, USA). GIST-T1 cells were then suspended in serum-free DMEM at 2 × 10^6 cells and seeded in the upper chambers. In the lower chambers, the DMEM medium containing 10% FBS was added. After 48 h, the cells migrating down the membrane were stained with crystal violet.

c-KIT = c-KIT (Homo sapiens, UniProt P10721); assay: Radiometric biochemical kinase assay on c-KIT; parameters: purchased Reaction Biology Corp. (contract assay service); details: read-out: IC50 against c-KIT
Experimental: as §1
Enzymatic inhibitory activities of all synthesized thiazolo[5,4-b]pyridine derivatives against c-KIT were measured using radiometric biochemical kinase assays (Table 1). We first explored the R1 group of the thiazolo[5,4-b]pyridine scaffold.

GIST = tested on: GIST; parameters: method as in PMID 32601076; details: fourth-line treatment; cited from earlier work
GIST-T1 cells [15] = assay: Soft agar assay (anchorage-independent growth); assay type: cell-based, human; details: GIST-T1, two different concentrations, 3 weeks
Experimental: Anchorage-independent growth was assessed by determining colony formation on soft agar. GIST-T1 cells in DMEM media containing 0.7% agar were plated at 5,000 cells per well. Cells were treated with each compound for 3 weeks, and the media were changed every 3 days. Colonies were stained using iodonitrotetrazolium chloride (Sigma Aldrich). The average number colonies were counted using ImageJ software (version 1.53e, National Institutes of Health, Bethesda, MD, USA)

Structure (SMILES)	IC50 (c-KIT V560G/D816V) [nM]	fold higher enzymatic inhibitory activity against c-KIT V560G/D816V compared with imatinib (c-KIT V560G/D816V)	GI50 (GIST-T1 cells [1]) [nM]	GI50 (HMC1.2 cells [2]) [nM]	GI50 (c-KIT D816V Ba/F3 cells [3]) [nM]	GI50 (parental Ba/F3 cells) [nM]	c-KIT auto-phosphorylation [4]	levels of phosphorylated c-KIT (Tyr703) and downstream mediators p-AKT, p-ERK, p-PLCγ, p-STAT3 [5]	c-KIT auto-phosphorylation [6]	production of apoptotic cells (GIST-T1 cells [7])	production of apoptotic cells (HMC1.2 cells [8])	production of apoptotic cells (c-KIT D816V Ba/F3 cells [9])	G0/G1 arrest induced compared to control (GIST-T1 cells [10])	G0/G1 arrest compared with imatinib (HMC1.2 cells [11])	G0/G1 arrest compared with imatinib (c-KIT D816V Ba/F3 cells [12])	cell migration decreased compared to control (GIST-T1 cells [13])	invasion capability (GIST-T1 cells [14])	IC50 (c-KIT) [nM]	overall response rate (GIST) [%]	anchorage-independent growth (GIST-T1 cells [15])
Cc1ccc(NC(=O)c2ccc(CN3CCNCC3)c(C(F)(F)F)c2)cc1-c1cnc2sc(N)nc2c1 [6s]	7670 ± 2640	4.9- to 8.0 fold	20	1330 ± 430	1060 ± 150	10500 ± 3590	completely inhibited	remarkably inhibited	completely inhibited	remarkably induced	remarkably induced	remarkably induced	25–35%	more strongly	more strongly	50–70%	significantly suppressing	370		
CC(=O)Nc1nc2cc(-c3cc(NC(=O)c4ccc(CN5CCN(C)CC5)c(C(F)(F)F)c4)ccc3C)cnc2s1 [7c]	5070 ± 710	4.9- to 8.0 fold	10	1520 ± 430	530 ± 60	10500 ± 3440	completely inhibited	remarkably inhibited	completely inhibited	remarkably induced	remarkably induced	remarkably induced	25–35%	more strongly	more strongly	50–70%	significantly suppressing	100		
CCn1c(=O)c(-c2cc(NC(=O)Nc3ccccc3)c(F)cc2Br)cc2cnc(NC)cc21 [Ripretinib]																			9.4	
Cc1ccc(NC(=O)c2ccc(CN3CCN(C)CC3)cc2)cc1Nc1nccc(-c2cccnc2)n1 [imatinib, reference compound]				27100 ± 3360	12200 ± 2060	17000 ± 200		remarkably inhibited			did not induce apoptosis		25–35%							dramatic inhibition
